# Source: patent US20120027687A1, “FATTY ACID PROTEIN KINASE C ACTIVATORS AND ANTICOAGULANT FOR THE TREATMENT OF STROKE” (priority 2010, published 2012)
# Key:
# [1] = molecular target: protein kinase C; conditions: (−)-enantiomer; read-out: potency (EC50); cited from earlier work
# [2] = system: Endothelin-converting enzyme (ECE); test: Endothelin-converting enzyme (ECE) activity in neuroblastoma cells; format: cell-based, human; conditions: bryostatin 0.27 nM, BR-101 1 μM, BR-111 1 μM
# Description: ECE assay. […] neuroblastoma cells were incubated with bryostatin (0.27 nM), BR-101 (DCP-LA) (1 μM), and BR-111 (DHA-CP6) (1 μM). Endothelin-converting enzyme (ECE) was measured fluorimetrically using the method of Johnson and Ahn (Anal. Biochem. (2000), vol. 286, pp. 112-118). A sample of cell homogenate (20 μl) was incubated in 50 mM MES-KOH, pH 6.0, 0.01% C12E10 (polyoxyethylene-10-lauryl ether), and 15 μM McaBK2 (7-Methoxycoumarin-4-acetyl [Ala7-(2,4-Dinitrophenyl)Lys9]-bradykinin trifluoroacetate salt) (Sigma-Aldrich). After 60 min at 37° C., the reaction was quenched by adding trifluoroacetic acid to 0.5%. The sample was diluted to 1.4 ml with water and the fluorescence was measured at ex=334 nm, em=398 nm.
# [3] = system: SH-SY5Y neuroblastoma cells; test: Cell survival and proliferation (alamar Blue, CyQuant); format: cell-based, human; conditions: alamar Blue and CyQuant staining
# Description: (§1) Aβ Measurement and Cell Viability Assay. Aβ was measured using an Aβ 1-42 human fluorimetric ELISA kit (Invitrogen) according to the manufacturer's instructions. Results were measured in a Biotek Synergy HT microplate reader. AlamarBlue and CyQuant NF (Invitrogen) according to the manufacturer's instructions.
# [4] = system: TACE; test: TACE activity in neuronal cells; format: cell-based, human, mouse; conditions: SH-SY5Y cells, N2a cells, primary neurons from rat hippocampus
# Description: TACE Assay. TACE was measured by incubating 5 μl cell homogenate, 3 μl buffer (50 mM Tris-HCl 7.4 plus 25 mM NaCl plus 4% glycerol), and 1 μl of 100 μM TACE substrate (Aβz-[…]-DPa) (Calbiochem) for 20 min at 37° C. 1.5-ml polypropylene centrifuge tubes. Jin et al., Anal. Biochem. (2002), vol. 302, pp. 269-275. The reaction was stopped by cooling to 4° C. The samples were diluted to 1 ml and the fluorescence was rapidly measured (ex=320 nm, em=420 nm) in a Spex Fluorolog 2 spectrofluorometer.
# [5] = system: Aβ; test: Aβ production in N2a neuroblastoma cells transfected with human APPSwe/PSID; format: cell-based, mouse; conditions: 24 hours
# Description: (§2) Cell culture. Rat hippocampal H19-7/IGF-IR cells (ATCC, Manassas, Va.) were plated onto poly-L-lysine coated plates and grown at 35° C. in DMEM/10% FCS for several days until about 50% coverage was obtained. The cells were then induced to differentiate into a neuronal phenotype by replacing the medium with 5 ml N2 medium containing 10 ng/ml basic fibroblast growth factor at 39° C. and grown in T-75 flasks at 37° C. Human SH-SY5Y neuroblastoma cells (ATCC) were cultured in 45% F12K/45% MEM/10% FCS. Mouse N2A neuroblastoma cells were cultured in DMEM/10% FCS without glutamine. Rat hippocampal neurons from 18-day-old embryonic Sprague Dawley rat brains were plated on 12- or 96-well plates coated with poly-D-lysine (Sigma-Aldrich, St. Louis, Mo.) in B-27 neurobasal medium containing 0.5 mM glutamine and 25 μM glutamate (Invitrogen, Carlsbad, Calif.) and cultured for three days in the medium without glutamate. The neuronal cells were grown under 5% CO2 in an incubator maintained at 37° C. for 14 days.
# as §1
# To measure the effects of PKCε activation on Aβ production, mouse neuro2a (N2a) neuroblastoma cells transfected with human APPSwe/PSID were used, which produce large quantities of Aβ. Petanceska et al., J. Neurochem. (1996), vol. 74, pp. 1878-1884. […] With bryostatin, which activates PKC by binding to the diacylglycerol-binding site, the inhibition was biphasic with concentrations of 20 nM or higher producing no net effect. This may be explained by the ability of this class of PKC activators to downregulate PKC when used at high concentrations.
# [6] = system: Aβ; test: Degradation of exogenously applied Aβ in SH-SY5Y cells; format: cell-based, human; conditions: 0.01 μM to 10 μM; 100 nM exogenous Aβ-42; 24 hours
# Description: as §2, §1
# This concentration of Aβ is too low to produce measurable toxicity or cell death. […]
# [7] = molecular target: T1, PKCε (Homo sapiens, UniProt Q02156); test: PKC assay with purified PKCε; format: biochemical
# T1 construct: purchased Calbiochem
# T1 sequence (Q02156 1-737): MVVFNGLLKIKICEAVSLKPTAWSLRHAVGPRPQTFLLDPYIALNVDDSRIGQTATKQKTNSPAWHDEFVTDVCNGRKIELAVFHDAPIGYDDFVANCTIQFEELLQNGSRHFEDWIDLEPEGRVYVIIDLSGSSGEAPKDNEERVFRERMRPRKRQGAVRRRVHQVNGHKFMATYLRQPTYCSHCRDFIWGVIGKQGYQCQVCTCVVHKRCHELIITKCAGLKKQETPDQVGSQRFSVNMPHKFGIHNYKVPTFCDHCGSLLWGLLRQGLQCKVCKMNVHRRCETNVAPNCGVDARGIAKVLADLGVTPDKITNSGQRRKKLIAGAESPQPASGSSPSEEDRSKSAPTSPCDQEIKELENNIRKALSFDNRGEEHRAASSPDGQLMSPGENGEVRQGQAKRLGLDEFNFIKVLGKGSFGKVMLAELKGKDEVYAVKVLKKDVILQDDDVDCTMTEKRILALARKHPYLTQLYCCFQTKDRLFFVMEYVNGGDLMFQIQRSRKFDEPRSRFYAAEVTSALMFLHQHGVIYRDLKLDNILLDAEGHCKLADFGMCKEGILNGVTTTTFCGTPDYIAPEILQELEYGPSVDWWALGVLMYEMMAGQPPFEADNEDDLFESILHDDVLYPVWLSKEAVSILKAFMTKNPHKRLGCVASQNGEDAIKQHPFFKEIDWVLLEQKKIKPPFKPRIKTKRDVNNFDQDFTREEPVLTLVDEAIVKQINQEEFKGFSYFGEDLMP
# Description: PKC assay. […] 0.5 micro Ci[^γ32P]ATP was added. […] The reaction was stopped by spotting the reaction mixtures on 1×2 cm strips of cellulose phosphate paper (Whatman P81) and immediately washing twice for 1 hr in 0.5% H3PO4. The cellulose phosphate strips were counted in a scintillation counter. In some experiments, phosphatidylserine, diacylglycerol, and/or calcium were removed. […]
# To determine their PKC isozyme specificity, fatty acid derivatives were preincubated with purified PKC for five minutes and the PKC activity was measured radiometrically.
SMILES,EC50 [1],ECE activity [2],effect on cell survival [3],effect on proliferation [3],TACE activity [4],levels of intracellular Aβ ([5]; various concentrations),levels of secreted Aβ ([5]; various concentrations),concentration dependence of Aβ inhibition ([5]; fatty acid derivatives up to 10 μM to 100 μM),reduction of cellular levels of Aβ [6],"concentration needed to activate PKC, times lower than for BR-101 (DCP-LA) [7]","effect on purified PKCε (FIG. 7, FIG. 8) ([7]; preincubated five minutes, radiometric)"
CCCCCCCCc1ccc2c3c(c[nH]c13)C[C@@H](CO)NC(=O)[C@H](C(C)C)N2C [Octylindolactam V],29 nM,–,–,–,–,–,–,–,–,–,–
"CCC1CC1CC1CC1CC1CC1CC1CC1CC1CC1CC1CC1CCC(=O)OC (centres unmarked) [BR-111, methyl-3-(2-((2-((2-((2-((2-((2-ethylcyclopropyl)methyl)cyclopropyl)methyl)cyclopropyl)methyl)-cyclopropyl)methyl)cyclopropyl)methyl)cyclopropyl)propanoate]",–,sustained increase,no effect,no effect,small increases,markedly reduced,markedly reduced,monotonically increasing inhibition,45%-63%,approximately 100 times,activated
